Laboratory results: patent publication US8192962B2, “Processes for detecting toxic substances” (Daikin Industries, Ltd., priority 2001, dated 2012)

Tested on: Mitochondria-located protein genes
Test: DNA chip mRNA expression in yeast, mitochondria-located protein genes (Table 2)
Format: cell-based, Saccharomyces cerevisiae S288C
Settings: cells incubated two hours with the chemical substance
How it was run: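 Chemical exposure: 2 h, log-phase S. cerevisiae S288C, YPD, 25° C., dose set to inhibit growth without death. Profiling: mRNA labeled by reverse transcription with Cy3- or Cy5-dUTP, hybridized to whole-genome array. Output: fluorescence ratio against untreated culture.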

## C=CC=O [(14), acrolein]
Yeast gene YJR121W
  The level of expressed mRNA in the presence of chemical substance/The level of expressed mRNA in the absence of chemical substance: 0.7
Yeast gene YKL003C
  The level of expressed mRNA in the presence of chemical substance/The level of expressed mRNA in the absence of chemical substance: 2.0
Yeast gene YKL016C
  The level of expressed mRNA in the presence of chemical substance/The level of expressed mRNA in the absence of chemical substance: 1.6
Yeast gene YKL141W
  The level of expressed mRNA in the presence of chemical substance/The level of expressed mRNA in the absence of chemical substance: 1.4
Yeast gene YKL142W
  The level of expressed mRNA in the presence of chemical substance/The level of expressed mRNA in the absence of chemical substance: 2.3
Yeast gene YKL148C
  The level of expressed mRNA in the presence of chemical substance/The level of expressed mRNA in the absence of chemical substance: 0.8
Yeast gene YKL170W
  The level of expressed mRNA in the presence of chemical substance/The level of expressed mRNA in the absence of chemical substance: 1.3
Yeast gene YKL194C
  The level of expressed mRNA in the presence of chemical substance/The level of expressed mRNA in the absence of chemical substance: 1.4
Yeast gene YKR066C
  The level of expressed mRNA in the presence of chemical substance/The level of expressed mRNA in the absence of chemical substance: 1.5
Yeast gene YLL041C
  The level of expressed mRNA in the presence of chemical substance/The level of expressed mRNA in the absence of chemical substance: 1.2
Yeast gene YLR038C
  The level of expressed mRNA in the presence of chemical substance/The level of expressed mRNA in the absence of chemical substance: 1.6
Yeast gene YLR259C
  The level of expressed mRNA in the presence of chemical substance/The level of expressed mRNA in the absence of chemical substance: 0.8
Yeast gene YLR295C
  The level of expressed mRNA in the presence of chemical substance/The level of expressed mRNA in the absence of chemical substance: 1.2
Yeast gene YLR304C
  The level of expressed mRNA in the presence of chemical substance/The level of expressed mRNA in the absence of chemical substance: 0.7
Yeast gene YLR348C
  The level of expressed mRNA in the presence of chemical substance/The level of expressed mRNA in the absence of chemical substance: 1.0
Yeast gene YLR395C
  The level of expressed mRNA in the presence of chemical substance/The level of expressed mRNA in the absence of chemical substance: 1.7
Yeast gene YML054C
  The level of expressed mRNA in the presence of chemical substance/The level of expressed mRNA in the absence of chemical substance: 2.1
Yeast gene YML120C
  The level of expressed mRNA in the presence of chemical substance/The level of expressed mRNA in the absence of chemical substance: 0.8
Yeast gene YML129C
  The level of expressed mRNA in the presence of chemical substance/The level of expressed mRNA in the absence of chemical substance: 1.4
Yeast gene YMR023C
  The level of expressed mRNA in the presence of chemical substance/The level of expressed mRNA in the absence of chemical substance: 1.6
Yeast gene YMR035W
  The level of expressed mRNA in the presence of chemical substance/The level of expressed mRNA in the absence of chemical substance: 1.3
Yeast gene YMR083W
  The level of expressed mRNA in the presence of chemical substance/The level of expressed mRNA in the absence of chemical substance: 0.8
Yeast gene YMR089C
  The level of expressed mRNA in the presence of chemical substance/The level of expressed mRNA in the absence of chemical substance: 0.9
Yeast gene YMR152W
  The level of expressed mRNA in the presence of chemical substance/The level of expressed mRNA in the absence of chemical substance: 1.1
Yeast gene YMR203W
  The level of expressed mRNA in the presence of chemical substance/The level of expressed mRNA in the absence of chemical substance: 0.7
Yeast gene YMR267W
  The level of expressed mRNA in the presence of chemical substance/The level of expressed mRNA in the absence of chemical substance: 1.0
Yeast gene YNL055C
  The level of expressed mRNA in the presence of chemical substance/The level of expressed mRNA in the absence of chemical substance: 0.9
Yeast gene YNL071W
  The level of expressed mRNA in the presence of chemical substance/The level of expressed mRNA in the absence of chemical substance: 0.8
Yeast gene YNL073W
  The level of expressed mRNA in the presence of chemical substance/The level of expressed mRNA in the absence of chemical substance: 0.7
Yeast gene YNL104C
  The level of expressed mRNA in the presence of chemical substance/The level of expressed mRNA in the absence of chemical substance: 0.9
Yeast gene YNL256W
  The level of expressed mRNA in the presence of chemical substance/The level of expressed mRNA in the absence of chemical substance: 0.7
Yeast gene YOL096C
  The level of expressed mRNA in the presence of chemical substance/The level of expressed mRNA in the absence of chemical substance: 1.4
Yeast gene YOR020C
  The level of expressed mRNA in the presence of chemical substance/The level of expressed mRNA in the absence of chemical substance: 1.6
Yeast gene YOR037W
  The level of expressed mRNA in the presence of chemical substance/The level of expressed mRNA in the absence of chemical substance: 1.0
Yeast gene YOR100C
  The level of expressed mRNA in the presence of chemical substance/The level of expressed mRNA in the absence of chemical substance: 1.4
Yeast gene YOR130C
  The level of expressed mRNA in the presence of chemical substance/The level of expressed mRNA in the absence of chemical substance: 1.3
Yeast gene YOR142W
  The level of expressed mRNA in the presence of chemical substance/The level of expressed mRNA in the absence of chemical substance: 0.8
Yeast gene YOR150W
  The level of expressed mRNA in the presence of chemical substance/The level of expressed mRNA in the absence of chemical substance: 1.6
Yeast gene YOR176W
  The level of expressed mRNA in the presence of chemical substance/The level of expressed mRNA in the absence of chemical substance: 0.8
Yeast gene YOR187W
  The level of expressed mRNA in the presence of chemical substance/The level of expressed mRNA in the absence of chemical substance: 0.6
Yeast gene YOR316C
  The level of expressed mRNA in the presence of chemical substance/The level of expressed mRNA in the absence of chemical substance: 1.0
Yeast gene YPL040C
  The level of expressed mRNA in the presence of chemical substance/The level of expressed mRNA in the absence of chemical substance: 1.1
Yeast gene YPL134C
  The level of expressed mRNA in the presence of chemical substance/The level of expressed mRNA in the absence of chemical substance: 1.4
Yeast gene YPL135W
  The level of expressed mRNA in the presence of chemical substance/The level of expressed mRNA in the absence of chemical substance: 1.1
Yeast gene YPL215W
  The level of expressed mRNA in the presence of chemical substance/The level of expressed mRNA in the absence of chemical substance: 1.2
Yeast gene YPL262W
  The level of expressed mRNA in the presence of chemical substance/The level of expressed mRNA in the absence of chemical substance: 1.2
Yeast gene YPR024W
  The level of expressed mRNA in the presence of chemical substance/The level of expressed mRNA in the absence of chemical substance: 0.7
Yeast gene YPR037C
  The level of expressed mRNA in the presence of chemical substance/The level of expressed mRNA in the absence of chemical substance: 1.6
Yeast gene YPR047W
  The level of expressed mRNA in the presence of chemical substance/The level of expressed mRNA in the absence of chemical substance: 1.0
Yeast gene YPR134W
  The level of expressed mRNA in the presence of chemical substance/The level of expressed mRNA in the absence of chemical substance: 1.5
